Measurements reported in patent US10556879B2, “Retinoid compound, preparation method therefor, intermediates thereof and application thereof” (SHANGHAI INSTITUTE OF ORGANIC CHEMISTRY, CHINESE ACADEMY OF …, priority 2016, dated 2020).
Like-named read-outs stand apart in the source and are kept apart here.

What was measured:
[1] = test system: tumor-repopulating cells of B16-F1 melanoma; experiment: Inhibitory activity on proliferation of tumor-repopulating cells (TRCs) of B16-F1 melanoma in 3D fibrin gel; type: cell-based; conditions: Mus musculus
[2] = test system: metastatic melanoma in the lung; experiment: Metastatic melanoma in the lung model, 3000 tumor-repopulating cells via tail vein (WYC-103); type: in vivo; conditions: blood concentration 10 μM
Text: A metastatic melanoma model in the mouse was established to study whether WYC-103 could inhibit metastatic melanoma in the lung thus prevent secondary tumorigenesis. Firstly, 12 normally immunocompetent mice (C57BL/6, female, 6-8 weeks) were randomly selected and injected via the tail vein with 3000 tumor-repopulating cells of melanoma to establish a metastatic melanoma model in the mouse. The model mice were randomly divided into two groups which were respectively the treatment group and the negative control group. The mice were administered with WYC-103 (the treatment group) and DMSO (the negative control group) via tail vein injection once every 2 days at a blood concentration of 10 μM based on the body weight and the blood volume of the mice.

[3] = test system: subcutaneous implantation tumor of B16-F1 melanoma; experiment: Subcutaneous implantation model of B16-F1 melanoma in immunocompetent mice; type: in vivo, mice (C57BL/6)
Experimental: A subcutaneous implantation model of B16-F1 melanoma in immunocompetent mice (C57BL/6, female, 6-8 weeks) was established to study the inhibitory activity of compound WYC-103 on the tumor in situ. Firstly, B16-F1 cells were incubated within 3D fibrin gel (90-Pa in gel stiffness) that was immersed in culture medium for 5 days, and the desired tumor-repopulating cells were screened. Subsequently, the culture medium was respectively treated with collagenase and neutral protease II, and the tumor-repopulating cells of B16-F1 melanoma were released, then the obtained repopulating cells were transferred to a freshly prepared medium to be re-suspended and maintained at single-cell state.
Six immunocompetent mice were randomly divided into two groups which were respectively the treatment group and the DMSO negative control group. Mice were subcutaneously injected with 30,000 tumor-repopulating cells of melanoma to establish a subcutaneous implantation model of melanoma. Subsequently, Mice were administered via tail vein injection based on the body weight and the blood volume of the mice. From day 0, mice in the treatment group were administrated with WYC-103 once every 2 days at a blood concentration of 10 μM and fed normally, observing the survival of the mice. […] According to the statistical analysis, the tumor volume in the treatment group was only 50% of the control group (FIG. 12).
This experiment was repeated in order to further confirm the inhibitory activity of WYC-103 on subcutaneous implantation tumor of B16-F1 melanoma. In the present experiment, 18 immunocompetent mice (C57BL/6, female, 6-8 weeks) were randomly divided into three groups which were respectively the treatment group, the positive control group (BMS-453 was used as the positive drug) and the DMSO negative control group. Subsequently, Mice were administered via tail vein injection based on the body weight and the blood volume of the mice. From day 0, mice in the treatment group were administrated with WYC-103 once every 2 days at a blood concentration of 10 μM; mice in the positive control group were administered with BMS-453 (WYC-114) as the positive drug in the same route of administration; mice in the negative control group was administered with 0.1% DMSO in a same route of administration.

## CCOC(=O)c1ccc(C#Cc2ccc3c(c2)C(C)(C)CCS3)cc1O [WYC-103, ethyl 4-((4,4-dimethylthiochroman-6-yl)ethynyl)-2-hydroxybenzoate]
[1]; B16-F1, 120 h, 10 μM, incubated 5 days, colony tumor size, read-out: Inhibition rate on TRCs of B16-F1 melanoma at a concentration of 10 μM (%)
  inhibition at 10 µM: 86.8%
[1]; B16-F1, 10 μM (Table 3), read-out: Inhibition rate on TRCs of B16-F1 melanoma at a concentration of 10 μM/%
  inhibition at 10 µM: 86.8%
[2]
  average lung weight relative to the negative control group: ⅓
[2]; whole experiment
  toxic side effects: no obvious toxic side effects
[2]; tail vein injection every 2 days
  efficiency of preventing the occurrence of metastatic melanoma in the lung: 100%
[3]; first experiment, after 19 days, tail vein injection every 2 days, blood concentration 10 μM
  tumor volume in the treatment group relative to the control group: 50%
[3]; mouse, in vivo
  body weight of the mice: stable and balanced
  dissection of peritoneal/abdominal cavity: No abnormalities
  toxic side effects: no obvious toxic side effects
[3]; repeated experiment, 26th day, tail vein injection every 2 days, blood concentration 10 μM
  tumor volume in the treatment group relative to the negative control group: 50%
[3]; repeated experiment, on the 26th day
  mice died: 50%
